Assay results from ChEMBL document CHEMBL4257528, “Molecular insights into the interaction of Hsp90 with allosteric inhibitors targeting the C-terminal domain” (Medchemcomm, 2018).
Active and inactive are the calls of the source. The rule behind the calls is not given here.

Columns and labels:
[1] = target: Heat shock protein HSP 90-alpha (Homo sapiens) (UniProt P07900); assay: Binding affinity to 1H/13C-Ile HSP90alpha CTD (unknown origin) at 1.4 mM by Methyl-TROSY […] spectrum analysis
[2] = target: Heat shock protein HSP 90-alpha (Homo sapiens) (UniProt P07900); assay: Binding affinity to N-terminal His6-tagged HSP90alpha CTD (unknown origin) expressed in Escherichia coli BL21(DE3) at compound to protein ratio of 164 by STD-NMR method
[3] = Solubility of the compound in buffer solution; assay type: physicochemical
[4] = target: Heat shock protein HSP 90-alpha (Homo sapiens) (UniProt P07900); assay: Binding affinity to 1H/13C-Ile HSP90alpha CTD (unknown origin) at 0.9 mM by Methyl-TROSY […] spectrum analysis
[5] = target: Heat shock protein HSP 90-alpha (Homo sapiens) (UniProt P07900); assay: Binding affinity to 1H/13C-Ile HSP90alpha CTD (unknown origin) at 2.5 mM by Methyl-TROSY […] spectrum analysis

CO[C@@H]1[C@@H](O)[C@@H](O)[C@H](Oc2ccc(CCNC(C)=O)c(-c3cccc(F)c3)c2)OC1(C)C [CEMDOMESPIB]
Activity [1]: Active | Activity [2]: Active | solubility [3]: Soluble

CO[C@@H]1[C@@H](O)[C@@H](O)[C@H](Oc2ccc3cc(NC(C)=O)c(=O)oc3c2C)OC1(C)C
Activity [4]: Active | Activity [2]: Active | solubility [3]: Soluble

Nc1ncnc2c1ncn2[C@@H]1O[C@H](COP(=O)(O)OP(=O)(O)NP(=O)(O)O)[C@@H](O)[C@H]1O
Activity [5]: Active
